From patent US12692254B2, “Benzimidazole inhibitors of PAD enzymes” (BRISTOL-MYERS SQUIBB COMPANY, priority 2018, dated 2026)

Molecular target: human PAD4 (hPAD4) (Homo sapiens, UniProt Q9UM07)
Test: RFMS human PAD4 functional assay (rapid-fire mass spectrum)
Type: biochemical
Settings: 5 nM hPAD4 enzyme, 250 μM BAEE, 50 μM Calcium; 30 min preincubation, 90 min reaction at 37° C.
Method in brief: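 PAD4 (10 nM) preincubated 30 min with compound (top final 50 μM), then BAEE substrate added in pH 7.5 HEPES buffer with DTT, 50 μM calcium, TPEN; 90 min at 37° C. After TCA quench, citrulline derivatized with phenyl glyoxal (4 mM final, 30 min, 37° C) and quantified by RapidFire MS against internal standard.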

Sequence of human PAD4 (hPAD4) (Q9UM07 whole entry): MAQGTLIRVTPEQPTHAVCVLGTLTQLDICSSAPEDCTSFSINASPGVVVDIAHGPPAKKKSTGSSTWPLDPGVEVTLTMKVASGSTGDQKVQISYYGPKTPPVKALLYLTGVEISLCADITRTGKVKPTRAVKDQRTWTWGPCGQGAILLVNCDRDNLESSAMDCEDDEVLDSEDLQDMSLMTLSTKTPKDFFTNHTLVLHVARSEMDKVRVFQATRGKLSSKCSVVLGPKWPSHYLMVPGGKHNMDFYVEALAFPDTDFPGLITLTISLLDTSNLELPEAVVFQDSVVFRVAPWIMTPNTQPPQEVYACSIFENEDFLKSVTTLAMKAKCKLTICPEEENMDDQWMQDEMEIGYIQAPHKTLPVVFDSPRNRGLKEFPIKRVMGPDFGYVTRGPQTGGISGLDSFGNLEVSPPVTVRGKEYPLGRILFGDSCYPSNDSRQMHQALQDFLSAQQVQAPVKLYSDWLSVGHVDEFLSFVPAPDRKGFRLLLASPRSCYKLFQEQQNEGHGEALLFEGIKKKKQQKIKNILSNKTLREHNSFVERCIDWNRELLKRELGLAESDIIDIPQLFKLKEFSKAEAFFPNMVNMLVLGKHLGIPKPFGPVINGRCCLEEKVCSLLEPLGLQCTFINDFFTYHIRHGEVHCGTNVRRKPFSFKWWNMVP

Point of comparison: `COc1cc(C(=O)N2C[C@H]3CC[C@@H]2[C@@H]3N)cc2nc(-c3cc4ccccc4n3CC3CC3)n(CC3CN(C(=O)c4cccc(Cl)c4)C3)c12` [Example 154, (1R,4R,7R)-2-(1-{[1-(3-chlorobenzoyl)azetidin-3-yl]methyl}-2-[1-(cyclopropylmethyl)-1H-indol-2-yl]-7-methoxy-1H-1,3-benzodiazole-5-carbonyl)-2-azabicyclo[2.2.1]heptan-7-amine], IC50 21 nM. Against it:
- COc1ccc(C(=O)N2CC(Cn3c(-c4cc5ccccc5n4CC4CC4)nc4cc(C(=O)N5C[C@H]6CC[C@@H]5[C@@H]6N)cc(OC)c43)C2)cc1 [Example 153, (1R,4R,7R)-2-{2-[1-(cyclopropylmethyl)-1H-indol-2-yl]-7-methoxy-1-{[1-(4-methoxybenzoyl)azetidin-3-yl]methyl}-1H-1,3-benzodiazole-5-carbonyl}-2-azabicyclo[2.2.1]heptan-7-amine] — the same, 21 nM
- COc1cc(C(=O)N2C[C@H]3CC[C@@H]2[C@@H]3N)cc2nc(-c3cc4ccccc4n3CC3CC3)n(CC3CN(C(=O)c4cnn(C)c4)C3)c12 [Example 155, (1R,4R,7R)-2-{2-[1-(cyclopropylmethyl)-1H-indol-2-yl]-7-methoxy-1-{[1-(1-methyl-1H-pyrazole-4-carbonyl)azetidin-3-yl]methyl}-1H-1,3-benzodiazole-5-carbonyl}-2-azabicyclo[2.2.1]heptan-7-amine] — within 1.5-fold, 22 nM
- COc1cc(C(=O)N2C[C@H]3CC[C@@H]2[C@@H]3N)cc2nc(-c3cc4ccccc4n3CC3CC3)n(CC3CN(C(=O)c4ccc(C)cc4)C3)c12 [Example 156, (1R,4R,7R)-2-{2-[1-(cyclopropylmethyl)-1H-indol-2-yl]-7-methoxy-1-{[1-(4-methylbenzoyl)azetidin-3-yl]methyl}-1H-1,3-benzodiazole-5-carbonyl}-2-azabicyclo[2.2.1]heptan-7-amine] — within 1.5-fold, 22 nM
- COc1cc(C(=O)N2C[C@H](N)C[C@@H](F)C2)cc2nc(-c3cc4ccccc4n3CC3CC3)n(CC3CN(C(=O)c4cccc(F)c4)C3)c12 [Example 157, (3R,5R)-1-{2-[1-(cyclopropylmethyl)-1H-indol-2-yl]-1-{[1-(3-fluorobenzoyl)azetidin-3-yl]methyl}-7-methoxy-1H-1,3-benzodiazol-5-carbonyl}-5-fluoropiperidin-3-amine] — within 1.5-fold, 23 nM
- COc1cccc(C(=O)N2CC(Cn3c(-c4cc5ccccc5n4CC4CC4)nc4cc(C(=O)N5C[C@H]6CC[C@@H]5[C@@H]6N)cc(OC)c43)C2)c1 [Example 158, (1R,4R,7R)-2-{2-[1-(cyclopropylmethyl)-1H-indol-2-yl]-7-methoxy-1-{[1-(3-methoxybenzoyl)azetidin-3-yl]methyl}-1H-1,3-benzodiazole-5-carbonyl}-2-azabicyclo[2.2.1]heptan-7-amine] — within 1.5-fold, 23 nM
- COc1cc(C(=O)N2C[C@H]3CC[C@@H]2[C@@H]3N)cc2nc(-c3cc4ccccc4n3CC3CC3)n(CC3CN(C(=O)c4ccccc4C#N)C3)c12 [Example 159, 2-[3-({5-[(1R,4R,7R)-7-amino-2-azabicyclo[2.2.1]heptane-2-carbonyl]-2-[1-(cyclopropylmethyl)-1H-indol-2-yl]-7-methoxy-1H-1,3-benzodiazol-1-yl}methyl)azetidine-1-carbonyl]benzonitrile] — within 1.5-fold, 24 nM
- COc1cc(C(=O)N2C[C@H](N)C[C@@H](F)C2)cc2nc(-c3cc4ccccc4n3CC3CC3)n(CC3CN(C(=O)c4ccccc4)C3)c12 [Example 160, (3R,5R)-1-{1-[(1-benzoylazetidin-3-yl)methyl]-2-[1-(cyclopropylmethyl)-1H-indol-2-yl]-7-methoxy-1H-1,3-benzodiazole-5-carbonyl}-5-fluoropiperidin-3-amine] — within 1.5-fold, 25 nM
- COc1cc(C(=O)N2C[C@H]3CC[C@@H]2[C@@H]3N)cc2nc(-c3cc4ccccc4n3CC3CC3)n(CC3CN(C(=O)c4ccc(F)cc4)C3)c12 [Example 161, (1R,4R,7R)-2-{2-[1-(cyclopropylmethyl)-1H-indol-2-yl]-1-{[1-(4-fluorobenzoyl)azetidin-3-yl]methyl}-7-methoxy-1H-1,3-benzodiazole-5-carbonyl}-2-azabicyclo[2.2.1]heptan-7-amine] — within 1.5-fold, 25 nM
- COc1cc(C(=O)N2CC3CCC2[C@@H]3N)cc2nc(-c3cc4ccccc4n3CC3CC3)n(CC3CN(C(=O)[C@@H]4C[C@H]4c4ccccc4)C3)c12 (stereo partly drawn) [Example 162, (1R,4R,7R)-2-{2-[1-(cyclopropylmethyl)-1H-indol-2-yl]-7-methoxy-1-({1-[(1R,2R)-2-phenylcyclopropanecarbonyl]aze-tidin-3-yl}methyl)-1H-1,3-benzodiazole-5-carbonyl}-2-azabicyclo[2.2.1]heptan-7-amine] — within 1.5-fold, 25 nM
- COc1cc(C(=O)N2C[C@H]3CC[C@@H]2[C@@H]3N)cc2nc(-c3cc4ccccc4n3CC3CC3)n(CC3CN(C(=O)c4ccc(C#N)cc4F)C3)c12 [Example 163, 4-[3-({5-[(1R,4R,7R)-7-amino-2-azabicyclo[2.2.1]heptane-2-carbonyl]-2-[1-(cyclopropylmethyl)-1H-indol-2-yl]-7-methoxy-1H-1,3-benzodiazol-1-yl}methyl)azetidine-1-carbonyl]-3-fluorobenzonitrile] — within 1.5-fold, 26 nM
- COc1cc(C(=O)N2C[C@H]3CC[C@@H]2[C@@H]3N)cc2nc(-c3cc4ccccc4n3CC3CC3)n(CC3CN(C(=O)c4ccccc4F)C3)c12 [Example 164, (1R,4R,7R)-2-{2-[1-(cyclopropylmethyl)-1H-indol-2-yl]-1-{[1-(2-fluorobenzoyl)azetidin-3-yl]methyl}-7-methoxy-1H-1,3-benzodiazole-5-carbonyl}-2-azabicyclo[2.2.1]heptan-7-amine] — within 1.5-fold, 26 nM
- N#Cc1ccc(C(=O)N2CC(Cn3c(-c4cc5ccccc5n4CC4CC4)nc4cc(C(=O)N5C[C@H]6CC[C@@H]5[C@@H]6N)ccc43)C2)cc1 [Example 165, 4-[3-({5-[(1R,4R,7R)-7-amino-2-azabicyclo[2.2.1]heptane-2-carbonyl]-2-[1-(cyclopropylmethyl)-1H-indol-2-yl]-1H-1,3-benzodiazol-1-yl}methyl)azetidine-1-carbonyl]benzonitrile] — within 1.5-fold, 30 nM
- COc1cc(C(=O)N2C[C@H]3CC[C@@H]2[C@@H]3N)cc2nc(-c3cc4ccccc4n3CC3CC3)n(CC3CN(C(=O)c4ccc(Cl)cc4)C3)c12 [Example 166, (1R,4R,7R)-2-(1-{[1-(4-chlorobenzoyl)azetidin-3-yl]methyl}-2-[1-(cyclopropylmethyl)-1H-indol-2-yl]-7-methoxy-1H-1,3-benzodiazole-5-carbonyl)-2-azabicyclo[2.2.1]heptan-7-amine] — within 1.5-fold, 31 nM
- COc1cc(C(=O)N2C[C@H]3CC[C@@H]2[C@@H]3N)cc2nc(-c3cc4ccccc4n3CC3CC3)n(CC3CN(C(=O)c4ccccn4)C3)c12 [Example 167, (1R,4R,7R)-2-{2-[1-(cyclopropylmethyl)-1H-indol-2-yl]-7-methoxy-1-{[1-(pyridine-2-carbonyl)azetidin-3-yl]methyl}-1H-1,3-benzodiazole-5-carbonyl}-2-azabicyclo[2.2.1]heptan-7-amine] — within 1.5-fold, 31 nM
- COc1ccccc1C(=O)N1CC(Cn2c(-c3cc4ccccc4n3CC3CC3)nc3cc(C(=O)N4C[C@H]5CC[C@@H]4[C@@H]5N)cc(OC)c32)C1 [Example 168, (1R,4R,7R)-2-{2-[1-(cyclopropylmethyl)-1H-indol-2-yl]-7-methoxy-1-{[1-(2-methoxybenzoyl)azetidin-3-yl]methyl}-1H-1,3-benzodiazol-5-carbonyl}-2-azabicyclo[2.2.1]heptan-7-amine] — 1.6-fold higher, 33 nM
- COc1cc(C(=O)N2C[C@H]3CC[C@@H]2[C@@H]3N)cc2nc(-c3cc4ccccc4n3CC3CC3)n(CC3CN(C(=O)c4cccc(F)c4)C3)c12 [Example 169, (1R,4R,7R)-2-{2-[1-(cyclopropylmethyl)-1H-indol-2-yl]-1-{[1-(3-fluorobenzoyl)azetidin-3-yl]methyl}-7-methoxy-1H-1,3-benzodiazole-5-carbonyl}-2-azabicyclo[2.2.1]heptan-7-amine] — 1.6-fold higher, 33 nM
- N[C@@H]1C2CCC1N(C(=O)c1ccc3c(c1)nc(-c1cc4ccccc4n1CC1CC1)n3CC1CN(C(=O)c3ccccc3)C1)C2 (stereo partly drawn) [Example 170, (1R,4R,7R)-2-{1-[(1-benozylazetidin-3-yl)methyl]-2-[1-(cyclopropylmethyl)-1H-indol-2-yl]-1H-1,3-benzodiazol-5-carbonyl}-2-azabicyclo[2.2.1]heptan-7-amine] — 1.7-fold higher, 35 nM
- COc1cc(C(=O)N2C[C@H]3CC[C@@H]2[C@@H]3N)cc2nc(-c3cc4ccccc4n3CC3CC3)n(CC3CN(C(=O)c4cccnc4)C3)c12 [Example 171, (1R,4R,7R)-2-{2-[1-(cyclopropylmethyl)-1H-indol-2-yl]-7-methoxy-1-{[1-(pyridine-3-carbonyl)azetidin-3-yl]methyl}-1H-1,3-benzodiazole-5-carbonyl}-2-azabicyclo[2.2.1]heptan-7-amine] — 2-fold higher, 41 nM
- COc1cc(C(=O)N2CC3CCC2[C@@H]3N)cc2nc(-c3cc4ccccc4n3CC3CC3)n(CC3CN(C(=O)[C@H]4C[C@@H]4C)C3)c12 (stereo partly drawn) [Example 172, (1R,4R,7R)-2-{2-[1-(cyclopropylmethyl)-1H-indol-2-yl]-7-methoxy-1-({1-[(1S,2S)-2-methylcyclopropanecarbonyl]aze-tidin-3-yl}methyl)-1H-1,3-benzodiazole-5-carbonyl}-2-azabicyclo[2.2.1]heptan-7-amine] — 2-fold higher, 42 nM
- COc1cc(C(=O)N2C[C@H]3CC[C@@H]2[C@@H]3N)cc2nc(-c3cc4ccccc4n3CC3CC3)n(CC3CN(C(=O)c4nn[nH]n4)C3)c12 [Example 173, (1R,4R,7R)-2-{2-[1-(cyclopropylmethyl)-1H-indol-2-yl]-7-methoxy-1-{[1-(2H-1,2,3,4-tetrazole-5-carbonyl)azetidin-3-yl]methyl}-1H-1,3-benzodiazole-5-carbonyl}-2-azabicyclo[2.2.1]heptan-7-amine] — 2.4-fold higher, 50 nM
